According to ChEMBL document CHEMBL4184333, “Expanding Benzoxazole-Based Inosine 5'-Monophosphate Dehydrogenase (IMPDH) Inhibitor Structure-Activity As Potential Antituberculosis Agents” (J Med Chem, 2018):
In brackets after ≈: the same amount, converted by molar mass. Activity calls are given as the source filed them. No cut-off for these calls is given here.

target: Inosine-5'-monophosphate dehydrogenase 2 (Homo sapiens, UniProt P12268); assay: Inhibition of human IMPDH2 using IMP as substrate by spectrophotometric method; details: read-out: Ki(app)

SMILES | Ki [µM]
C[C@H](Oc1cccc(F)c1C#N)C(=O)Nc1ccc2oc(-c3ccncc3)nc2c1 | > 5
C[C@H](Oc1cccc(Cl)c1Cl)C(=O)Nc1ccc2oc(-c3ccc(C(=O)NO)cc3)nc2c1 | > 5
C[C@H](Nc1cccc(Cl)c1Cl)C(=O)Nc1ccc2oc(-c3ccncc3)nc2c1 | > 5
C[C@H](Oc1ccccc1O)C(=O)Nc1ccc2oc(-c3ccc(C#N)cc3)nc2c1 | > 5
C[C@H](Oc1cccc(Cl)c1Cl)C(=O)Nc1ccc2oc(-c3ccc(C(N)=O)cc3)nc2c1 | > 5
COc1ccc(-c2nc3cc(NC(=O)[C@H](C)Oc4cccc(F)c4F)ccc3o2)cn1 | > 5
COc1ccc(-c2nc3cc(NC(=O)[C@H](C)Oc4cccc(Cl)c4Cl)ccc3o2)cc1 | > 5
C[C@H](Oc1cccc(Cl)c1Cl)C(=O)Nc1ccc2oc(-c3ccc(-c4n[nH]c(=O)o4)cc3)nc2c1 | 2.9
C[C@H](Oc1cccc(Cl)c1Cl)C(=O)Nc1ccc2oc(-c3ccc(O)cc3)nc2c1 | > 5
COc1ccc(-c2nc3cc(NC(=O)[C@H](C)Oc4cccc(Cl)c4Cl)ccc3o2)cn1 | > 5
C[C@H](Oc1cccc(Cl)c1Cl)C(=O)Nc1ccc2oc(-c3cccc(O)c3)nc2c1 | > 5
C[C@H](Oc1cccc(Cl)c1Cl)C(=O)Nc1ccc2oc(-c3ccc(C#N)cc3)nc2c1 | 2.3
COc1ccc(Cc2nc3cc(NC(=O)[C@H](C)Oc4cccc(Cl)c4Cl)ccc3o2)cc1 | > 5
C[C@H](Oc1cccc(Cl)c1Cl)C(=O)Nc1ccc2oc(-c3cc[n+]([O-])cc3)nc2c1 | > 5
C[C@H](Oc1cccc(Cl)c1Cl)C(=O)Nc1ccc2oc(-c3ccc(CN)cc3)nc2c1 | > 5
C[C@H](Oc1ccccc1C#N)C(=O)Nc1ccc2oc(-c3ccncc3)nc2c1 | > 5
COC(=O)c1ccc(-c2nc3cc(NC(=O)[C@H](C)Oc4cccc(Cl)c4Cl)ccc3o2)cc1 | > 5
COc1ccc(-c2nc3cc(NC(=O)[C@H](C)Oc4cccc(F)c4F)ccc3o2)cc1 | > 5

target: T1, GMP reductase 2 (Homo sapiens, UniProt Q9P2T1); assay: Inhibition of human GMPR2 using GMP as substrate by spectrophotometric method; details: read-out: Ki(app)
T1 sequence (Q9P2T1 whole entry): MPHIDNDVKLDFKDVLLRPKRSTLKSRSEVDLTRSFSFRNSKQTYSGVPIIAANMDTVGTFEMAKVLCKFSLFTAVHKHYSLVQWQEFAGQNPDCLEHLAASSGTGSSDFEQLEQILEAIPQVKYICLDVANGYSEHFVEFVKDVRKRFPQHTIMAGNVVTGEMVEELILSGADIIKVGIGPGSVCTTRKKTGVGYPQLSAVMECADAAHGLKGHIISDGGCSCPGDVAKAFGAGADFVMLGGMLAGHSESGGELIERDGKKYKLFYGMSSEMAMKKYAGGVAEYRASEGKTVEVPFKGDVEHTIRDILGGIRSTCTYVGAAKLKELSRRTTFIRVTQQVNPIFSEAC

SMILES | Ki [µM]
C[C@H](Oc1cccc(F)c1C#N)C(=O)Nc1ccc2oc(-c3ccncc3)nc2c1 | > 5
C[C@H](Oc1cccc(Cl)c1Cl)C(=O)Nc1ccc2oc(-c3ccc(C(=O)NO)cc3)nc2c1 | > 5
C[C@H](Nc1cccc(Cl)c1Cl)C(=O)Nc1ccc2oc(-c3ccncc3)nc2c1 | > 5
C[C@H](Oc1ccccc1O)C(=O)Nc1ccc2oc(-c3ccc(C#N)cc3)nc2c1 | > 5
C[C@H](Oc1cccc(Cl)c1Cl)C(=O)Nc1ccc2oc(-c3ccc(C(N)=O)cc3)nc2c1 | > 5
COc1ccc(-c2nc3cc(NC(=O)[C@H](C)Oc4cccc(F)c4F)ccc3o2)cn1 | > 5
COc1ccc(-c2nc3cc(NC(=O)[C@H](C)Oc4cccc(Cl)c4Cl)ccc3o2)cc1 | > 5
C[C@H](Oc1cccc(Cl)c1Cl)C(=O)Nc1ccc2oc(-c3ccc(-c4n[nH]c(=O)o4)cc3)nc2c1 | > 5
C[C@H](Oc1cccc(Cl)c1Cl)C(=O)Nc1ccc2oc(-c3ccc(O)cc3)nc2c1 | > 5
COc1ccc(-c2nc3cc(NC(=O)[C@H](C)Oc4cccc(Cl)c4Cl)ccc3o2)cn1 | > 5
C[C@H](Oc1cccc(Cl)c1Cl)C(=O)Nc1ccc2oc(-c3cccc(O)c3)nc2c1 | > 5
C[C@H](Oc1cccc(Cl)c1Cl)C(=O)Nc1ccc2oc(-c3ccc(C#N)cc3)nc2c1 | > 5
COc1ccc(Cc2nc3cc(NC(=O)[C@H](C)Oc4cccc(Cl)c4Cl)ccc3o2)cc1 | > 5
C[C@H](Oc1cccc(Cl)c1Cl)C(=O)Nc1ccc2oc(-c3cc[n+]([O-])cc3)nc2c1 | > 5
C[C@H](Oc1cccc(Cl)c1Cl)C(=O)Nc1ccc2oc(-c3ccc(CN)cc3)nc2c1 | > 5
C[C@H](Oc1ccccc1C#N)C(=O)Nc1ccc2oc(-c3ccncc3)nc2c1 | > 5
COC(=O)c1ccc(-c2nc3cc(NC(=O)[C@H](C)Oc4cccc(Cl)c4Cl)ccc3o2)cc1 | > 5
COc1ccc(-c2nc3cc(NC(=O)[C@H](C)Oc4cccc(F)c4F)ccc3o2)cc1 | > 5

system: Mycobacterium tuberculosis; assay: Antitubercular activity against Mycobacterium tuberculosis H37Rv ATCC 27294 using GAST/Fe medium after 1 week in absence of guanine by broth microdilution method; type: functional; details: H37Rv ATCC 27294, 168 h

SMILES | MIC [µM]
C[C@H](Oc1cccc(F)c1C#N)C(=O)Nc1ccc2oc(-c3ccncc3)nc2c1 | 6 (≈ 2.41 µg/mL)
C[C@H](Oc1cccc(Cl)c1Cl)C(=O)Nc1ccc2oc(-c3ccc(C(=O)NO)cc3)nc2c1 | 3 (≈ 1.46 µg/mL)
C[C@H](Nc1cccc(Cl)c1Cl)C(=O)Nc1ccc2oc(-c3ccncc3)nc2c1 | 6.7 (≈ 2.86 µg/mL)
C[C@H](Oc1ccccc1O)C(=O)Nc1ccc2oc(-c3ccc(C#N)cc3)nc2c1 | 22 (≈ 8.79 µg/mL)
COc1ccc(-c2nc3cc(NC(=O)[C@H](C)Oc4cccc(F)c4F)ccc3o2)cn1 | 6 (≈ 2.55 µg/mL)
COc1ccc(-c2nc3cc(NC(=O)[C@H](C)Oc4cccc(Cl)c4Cl)ccc3o2)cc1 | > 50
C[C@H](Oc1cccc(Cl)c1Cl)C(=O)Nc1ccc2oc(-c3ccc(-c4n[nH]c(=O)o4)cc3)nc2c1 | > 50
COc1ccc(-c2nc3cc(NC(=O)[C@H](C)Oc4cccc(Cl)c4Cl)ccc3o2)cn1 | 7 (≈ 3.21 µg/mL)
C[C@H](Oc1cccc(Cl)c1Cl)C(=O)Nc1ccc2oc(-c3ccc(C#N)cc3)nc2c1 | 4 (≈ 1.81 µg/mL)
C[C@H](Oc1cccc(Cl)c1Cl)C(=O)Nc1ccc2oc(-c3ccc(CN)cc3)nc2c1 | 11 (≈ 5.02 µg/mL)
COc1ccc(-c2nc3cc(NC(=O)[C@H](C)Oc4cccc(F)c4F)ccc3o2)cc1 | 5 (≈ 2.12 µg/mL)

system: Mycobacterium tuberculosis; assay: Antitubercular activity against Mycobacterium tuberculosis H37Rv ATCC 27294 using GAST/Fe medium after 1 week in presence of guanine by broth microdilution method; type: functional; details: H37Rv ATCC 27294, 168 h

SMILES | MIC [µM]
C[C@H](Oc1cccc(F)c1C#N)C(=O)Nc1ccc2oc(-c3ccncc3)nc2c1 | 11
C[C@H](Oc1cccc(Cl)c1Cl)C(=O)Nc1ccc2oc(-c3ccc(C(=O)NO)cc3)nc2c1 | 6
C[C@H](Nc1cccc(Cl)c1Cl)C(=O)Nc1ccc2oc(-c3ccncc3)nc2c1 | 50
C[C@H](Oc1ccccc1O)C(=O)Nc1ccc2oc(-c3ccc(C#N)cc3)nc2c1 | 25
COc1ccc(-c2nc3cc(NC(=O)[C@H](C)Oc4cccc(F)c4F)ccc3o2)cn1 | 8
COc1ccc(-c2nc3cc(NC(=O)[C@H](C)Oc4cccc(Cl)c4Cl)ccc3o2)cc1 | > 50
C[C@H](Oc1cccc(Cl)c1Cl)C(=O)Nc1ccc2oc(-c3ccc(-c4n[nH]c(=O)o4)cc3)nc2c1 | > 50
COc1ccc(-c2nc3cc(NC(=O)[C@H](C)Oc4cccc(Cl)c4Cl)ccc3o2)cn1 | 9
C[C@H](Oc1cccc(Cl)c1Cl)C(=O)Nc1ccc2oc(-c3ccc(C#N)cc3)nc2c1 | 5
C[C@H](Oc1cccc(Cl)c1Cl)C(=O)Nc1ccc2oc(-c3ccc(CN)cc3)nc2c1 | 11
COc1ccc(-c2nc3cc(NC(=O)[C@H](C)Oc4cccc(F)c4F)ccc3o2)cc1 | 8

system: Mycobacterium tuberculosis; assay: Antitubercular activity against Mycobacterium tuberculosis H37Rv ATCC 27294 using 7H9/ADC/Tween medium after 1 week in absence of guanine by broth microdilution method; type: functional; details: H37Rv ATCC 27294, 168 h

SMILES | MIC [µM]
C[C@H](Oc1cccc(F)c1C#N)C(=O)Nc1ccc2oc(-c3ccncc3)nc2c1 | 4 (≈ 1.61 µg/mL)
C[C@H](Oc1cccc(Cl)c1Cl)C(=O)Nc1ccc2oc(-c3ccc(C(=O)NO)cc3)nc2c1 | 30 (≈ 14.6 µg/mL)
C[C@H](Nc1cccc(Cl)c1Cl)C(=O)Nc1ccc2oc(-c3ccncc3)nc2c1 | 12 (≈ 5.13 µg/mL)
C[C@H](Oc1ccccc1O)C(=O)Nc1ccc2oc(-c3ccc(C#N)cc3)nc2c1 | 9.4 (≈ 3.75 µg/mL)
COc1ccc(-c2nc3cc(NC(=O)[C@H](C)Oc4cccc(F)c4F)ccc3o2)cn1 | > 50
COc1ccc(-c2nc3cc(NC(=O)[C@H](C)Oc4cccc(Cl)c4Cl)ccc3o2)cc1 | > 50
C[C@H](Oc1cccc(Cl)c1Cl)C(=O)Nc1ccc2oc(-c3ccc(-c4n[nH]c(=O)o4)cc3)nc2c1 | > 50
COc1ccc(-c2nc3cc(NC(=O)[C@H](C)Oc4cccc(Cl)c4Cl)ccc3o2)cn1 | 6 (≈ 2.75 µg/mL)
C[C@H](Oc1cccc(Cl)c1Cl)C(=O)Nc1ccc2oc(-c3ccc(C#N)cc3)nc2c1 | 3 (≈ 1.36 µg/mL)
C[C@H](Oc1cccc(Cl)c1Cl)C(=O)Nc1ccc2oc(-c3ccc(CN)cc3)nc2c1 | 25 (≈ 11.4 µg/mL)
COc1ccc(-c2nc3cc(NC(=O)[C@H](C)Oc4cccc(F)c4F)ccc3o2)cc1 | 4 (≈ 1.7 µg/mL)

system: Mycobacterium tuberculosis; assay: Antitubercular activity against Mycobacterium tuberculosis H37Rv ATCC 27294 using 7H9/ADC/Tween medium after 1 week in presence of guanine by broth microdilution method; type: functional; details: H37Rv ATCC 27294, 168 h

SMILES | MIC [µM]
C[C@H](Oc1cccc(F)c1C#N)C(=O)Nc1ccc2oc(-c3ccncc3)nc2c1 | 8
C[C@H](Oc1cccc(Cl)c1Cl)C(=O)Nc1ccc2oc(-c3ccc(C(=O)NO)cc3)nc2c1 | > 50
C[C@H](Nc1cccc(Cl)c1Cl)C(=O)Nc1ccc2oc(-c3ccncc3)nc2c1 | 35
C[C@H](Oc1ccccc1O)C(=O)Nc1ccc2oc(-c3ccc(C#N)cc3)nc2c1 | 22
COc1ccc(-c2nc3cc(NC(=O)[C@H](C)Oc4cccc(F)c4F)ccc3o2)cn1 | > 50
COc1ccc(-c2nc3cc(NC(=O)[C@H](C)Oc4cccc(Cl)c4Cl)ccc3o2)cc1 | > 50
C[C@H](Oc1cccc(Cl)c1Cl)C(=O)Nc1ccc2oc(-c3ccc(-c4n[nH]c(=O)o4)cc3)nc2c1 | > 50
COc1ccc(-c2nc3cc(NC(=O)[C@H](C)Oc4cccc(Cl)c4Cl)ccc3o2)cn1 | > 25
C[C@H](Oc1cccc(Cl)c1Cl)C(=O)Nc1ccc2oc(-c3ccc(C#N)cc3)nc2c1 | 6
C[C@H](Oc1cccc(Cl)c1Cl)C(=O)Nc1ccc2oc(-c3ccc(CN)cc3)nc2c1 | 25
COc1ccc(-c2nc3cc(NC(=O)[C@H](C)Oc4cccc(F)c4F)ccc3o2)cc1 | 14

system: Mycobacterium tuberculosis; assay: Antitubercular activity against Mycobacterium tuberculosis H37Rv ATCC 27294 using GAST/Fe medium after 2 weeks in absence of guanine by broth microdilution method; type: functional, organism-based; details: not given

SMILES | Activity
C[C@H](Oc1cccc(Cl)c1Cl)C(=O)Nc1ccc2oc(-c3ccc(C(=O)NO)cc3)nc2c1 | Active
